Laboratory results reported in patent US20250296922A1, “POLYSUBSTITUTED PYRROLIDINE DERIVATIVE, PREPARATION METHOD THEREFOR AND USE THEREOF” (SHANGHAI WENNAI THERAPEUTICS CO LTD, priority 2023, published 2025).

Assays:
[1] = Stability of the compound in liver microsomes (mouse); assay type: in vitro ADME, CD-1 mouse; details: 1 μM compound, 0.5 mg protein/mL; for Mouse liver microsomes T½ / half-life at 1 μM: 37° C.; for half-life at 1 μM: CD-1, mouse, liver microsomes, read-out: Mouse liver microsomes T½
Method: 2.1.1. working solution: 5 μL of test or control compound stock solution (10 mM DMSO solution) was diluted with 495 μL of acetonitrile (ACN) to obtain an intermediate stock solution (100 μM, 99% ACN).
2.2.2 Preparation procedure: An appropriate amount of NADPH powder was weighed and diluted with 10 mM MgCl2 buffer (working solution concentration: 10 mM; final reaction system concentration: 1 mM).
2.3.2 Preparation procedure: The appropriate concentration of liver microsomal working solution was prepared in 100 mM potassium phosphate buffer;
Acetonitrile (ACN) solution at 4° C. containing 200 ng/mL of Tolbutamide and 200 ng/ml of labetalol as internal standards 2.5. Operation steps:
2.5.2. Diluting liver microsomes with 100 mM potassium phosphate buffer to a concentration of 0.56 mg/mL.
2.5.3. Transferring 445 μL of liver microsomal working solution (0.56 mg/mL) to pre-heated incubation plates T60 and NCF60, and then pre-heating the incubation plates T60 and NCF60 for 10 minutes at 37° C. with shaking. Transferring 54 μL of liver microsomes to each well of the blank plate, adding 6 μL of NAPDH coenzyme solution to the blank plate, and finally transferring 180 μL of termination solution to the blank plate.
2.5.4 Adding 5 μL of compound working solution (100 μM) to the incubation plates T60 and NCF60 containing liver microsomes and mixing three times.
2.5.5. Adding 50 μL of buffer to the NCF60 plate and mixing three times, starting the timer and incubating at 37° C. for 60 min with the plate shaking.
2.5.6. Adding 180 μL of quenching solution and 6 μL of NAPDH coenzyme working solution sequentially to quenching plate TO, making sure that the plate was cold to prevent volatilization of the incubation solution.
2.5.7. For plate T60, mixing well three times and immediately transferring 54 μL of mixing solution (0-min time point) to quenching plate TO, then adding 44 μL of NAPDH coenzyme working solution to incubation plate T60. Starting the timer:
2.5.8. At the 5, 15, 30, 45 and 60 minute time points, adding 180 μL of quenching solution to the quenching plate and transferring 60 μL of reaction solution from the T60 plate to the quenching plate at each time point.
2.5.9. For NCF60 plates, mixing well and transferring 60 μL of reaction solution from the NCF60 incubating solution to a quenching plate containing 180 μL of quenching solution at 60th minute.
2.5.10. All plates were mixed on a shaker for 10 min and then centrifuged at 4000 rpm at 4° C. for 20 min.
2.5.11. Transferring 80 μL of supernatant to 240 μL of HPLC water and mixing on a
2.6.1. Calculating t1/2 and Clint (mic) values based on first-order elimination kinetics: […]

[2] = molecular target: Nav1.8 sodium channel (Homo sapiens (Human), UniProt Q9Y5Y9); assay: NaV1.8 blocking activity, manual patch clamp; assay type: cell-based; details: CHO cell line stably expressing Nav1.8
Chain of Nav1.8 sodium channel (Q9Y5Y9 whole entry): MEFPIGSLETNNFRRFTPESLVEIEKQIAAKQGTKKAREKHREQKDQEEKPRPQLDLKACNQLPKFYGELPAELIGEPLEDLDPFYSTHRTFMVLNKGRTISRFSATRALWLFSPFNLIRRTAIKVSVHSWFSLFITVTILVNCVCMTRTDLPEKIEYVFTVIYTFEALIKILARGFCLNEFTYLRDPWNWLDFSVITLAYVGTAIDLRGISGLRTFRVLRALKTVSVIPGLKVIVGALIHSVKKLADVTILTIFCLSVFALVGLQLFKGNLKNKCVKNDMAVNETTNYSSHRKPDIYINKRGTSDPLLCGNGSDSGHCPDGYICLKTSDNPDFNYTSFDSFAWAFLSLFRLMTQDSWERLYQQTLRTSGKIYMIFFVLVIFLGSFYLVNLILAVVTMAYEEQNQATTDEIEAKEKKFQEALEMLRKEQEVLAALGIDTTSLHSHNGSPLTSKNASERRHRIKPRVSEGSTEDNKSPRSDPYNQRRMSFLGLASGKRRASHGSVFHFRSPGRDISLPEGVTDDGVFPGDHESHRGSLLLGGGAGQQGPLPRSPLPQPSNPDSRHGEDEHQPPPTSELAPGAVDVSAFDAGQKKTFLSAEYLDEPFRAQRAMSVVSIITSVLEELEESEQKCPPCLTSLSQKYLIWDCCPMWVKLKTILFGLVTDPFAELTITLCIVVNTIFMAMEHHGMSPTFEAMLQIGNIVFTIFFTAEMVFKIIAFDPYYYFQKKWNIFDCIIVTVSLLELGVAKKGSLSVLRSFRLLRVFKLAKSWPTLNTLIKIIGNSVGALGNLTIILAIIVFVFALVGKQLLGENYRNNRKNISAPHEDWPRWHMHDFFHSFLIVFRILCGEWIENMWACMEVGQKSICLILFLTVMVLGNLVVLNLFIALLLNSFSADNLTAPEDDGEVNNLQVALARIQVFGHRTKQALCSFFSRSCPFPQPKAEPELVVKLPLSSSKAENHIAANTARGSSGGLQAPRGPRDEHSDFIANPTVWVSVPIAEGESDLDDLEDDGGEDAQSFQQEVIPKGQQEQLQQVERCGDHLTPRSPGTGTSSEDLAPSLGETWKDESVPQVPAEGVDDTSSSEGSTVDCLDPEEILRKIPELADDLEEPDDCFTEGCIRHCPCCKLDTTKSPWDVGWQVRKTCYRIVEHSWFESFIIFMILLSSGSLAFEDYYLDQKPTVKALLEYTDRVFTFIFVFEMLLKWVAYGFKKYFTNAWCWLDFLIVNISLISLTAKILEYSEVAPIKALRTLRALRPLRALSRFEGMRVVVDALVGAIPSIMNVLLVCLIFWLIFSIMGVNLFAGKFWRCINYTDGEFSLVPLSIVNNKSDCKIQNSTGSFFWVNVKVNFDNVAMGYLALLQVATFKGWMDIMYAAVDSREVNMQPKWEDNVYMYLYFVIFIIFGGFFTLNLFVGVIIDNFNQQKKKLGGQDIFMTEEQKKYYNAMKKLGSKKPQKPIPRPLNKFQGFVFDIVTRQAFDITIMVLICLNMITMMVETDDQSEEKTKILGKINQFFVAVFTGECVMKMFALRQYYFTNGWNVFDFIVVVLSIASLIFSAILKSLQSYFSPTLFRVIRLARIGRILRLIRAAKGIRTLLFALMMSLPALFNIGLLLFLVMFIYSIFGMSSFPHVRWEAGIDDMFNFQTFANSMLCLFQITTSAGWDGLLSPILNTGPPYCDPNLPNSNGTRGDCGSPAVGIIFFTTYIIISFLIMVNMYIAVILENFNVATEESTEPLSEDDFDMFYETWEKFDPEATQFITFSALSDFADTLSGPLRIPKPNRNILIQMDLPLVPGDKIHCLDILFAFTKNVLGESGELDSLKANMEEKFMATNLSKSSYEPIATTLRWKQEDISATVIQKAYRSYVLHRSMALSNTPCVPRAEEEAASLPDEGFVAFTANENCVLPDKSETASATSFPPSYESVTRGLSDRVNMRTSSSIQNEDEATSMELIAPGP
Method: The NaV1.8 blocking activity was determined by using a manual patch clamp technique to detect the effect of the subject on the channel currents of stably overexpressed Nav1.8.
CHO cell line stably expressing the Nav1.8 sodium channel was used for the experiments, gene information: sodium channel, voltage-gated, type 8, alpha (SCN10A), cDNA strictly similar to GenBank accession number: NM 006514.
Cells were cultured in HAM'S/F-12 medium containing 10% foetal bovine serum and 10 μg/mL Blasticidin, 200 μg/mL Hygromycin B, and 100 μg/mL Zeocin at 37° C., 5% CO2. For expansion or maintenance cultures, cells were treated with 0.25%-Trypsin-EDTA, washed and centrifuged, and then inoculated in 6-cm cell culture dishes with 2.5×10^5lls per cell culture dish (final volume: 5 mL).
Prior to the patch clamp detection, cells were separated with 0.25%-Trypsin-EDTA and 6.5×10^3 cells were spread onto coverslips and incubated (final volume: 500 μL) in 24-well plates for 18 hours, then the test was performed.
50 mM CsCl, 10 mM NaCl, 10 mM HEPES, 60 mM CsF, 20 mM EGTA, and pH was adjusted to 7.2 with CsOH. • Instrument information is provided in Table 2 below:
Prior to Nav1.8 channel current testing, a blank control solution (DMSO) was diluted into 10 ml of extracellular fluid as the working solution. Positive controls and subjects were first diluted with different doses of DMSO depending on the final concentration before being diluted as working solution using extracellular fluid. 100 nM TTX was added to each working solution to block the TTX-S current. The working solution was sonicated for 20 min before performing the patch clamp test detection.
Patch clamp manipulation: firstly, the capillary glass tube was drawn into a recording electrode using a microelectrode puller, then the electrode filled with intracellular fluid was loaded into the microelectrode holder, and the microelectrode manipulator was manoeuvred under an inverted microscope to immerse the electrode into the extracellular fluid and record the electrode resistance (Rpip). The electrode was then slowly contacted to the cell surface and negative pressure suction was given to form a GQ2 seal. At this time, fast capacitance compensation was performed and negative pressure was continually applied to suction through the cell membrane to form a whole-cell recording pattern. Finally, slow capacitance compensation was performed and experimental parameters such as series resistance (Rs) were recorded. No leakage compensation was given.
Drug administration was initiated when the Nav1.8 current was stabilized for whole-cell recordings, and the next concentration was detected after each drug concentration had acted for approximately 5 min (or until the current was stable). Cell-lined coverslips were placed in the recording bath under an inverted microscope, and the blank control external solution as well as the working solution of the compound to be tested flowed sequentially from low to high concentrations through the recording bath by using gravitational perfusion and thus acted on the cells, and a peristaltic pump was used to exchange fluids during the recording. The current detected by each cell in the compound-free external fluid served as its own control. Each concentration was repeated independently 2-3 times. All electrophysiological experiments were performed at room temperature.
The voltage stimulation scheme for whole-cell patch-clamp recording of Nav1.8 currents was as follows: when a whole-cell seal was formed, the voltage was clamped at −120 mV. The resting state recording of sodium currents was performed by maintaining the voltage for 5s and then depolarizing it to 0 mV, and then administering a depolarizing pulse (TP1) to 0 m V for 50 ms for detecting the resting state sodium currents. For half-inactivated state recording, the voltage was first stepped at different voltages and maintained for 5s and then a depolarizing pulse was given to 0 mV to detect the Vhalf. […]

## 4-((2R,3S,4S,5R)-3-(3,4-difluoro-2-(methoxy-d3)phenyl)-4,5-dimethyl-5-(trifluoromethyl) pyrrolidine-2-carboxamido)pyridinamide [Compound 11]
[1]
  Mouse liver microsomes T½: 1.24 h
  Mouse liver microsomes Residual (T = 60 min): 52.9%
[2]
  Blocking rate (%) @3 nM: 90.26%
  Blocking rate(%) @10 nM: 97.84%
  IC50: 730 pM

## COc1c([C@H]2[C@H](C(=O)Nc3ccc[n+]([O-])c3)N[C@@](C)(C(F)(F)F)[C@H]2C)ccc(F)c1F [Compound 7, 3-((2R,3S,4S,5R)-3-(3,4-difluoro-2-methoxyphenyl)-4,5-dimethyl-5-(trifluoromethyl)pyrrolidine-2-carboxamido)pyridine 1-oxide]
[1]
  half-life at 1 μM: > 2.42 h
  Mouse liver microsomes Residual (T = 60 min): 75.4%
[2]
  Blocking rate (%) @3 nM: 67.34%
  Blocking rate(%) @10 nM: 91.89%

## COc1c([C@H]2[C@H](C(=O)Nc3cccc(S(N)(=O)=O)c3)N[C@@](C)(C(F)(F)F)[C@H]2C)ccc(F)c1F [Compound 8, (2R,3S,4S,5R)-3-(3,4-difluoro-2-methoxyphenyl)-4,5-dimethyl-aza-(3-aminosulfonylphenyl)-5-(trifluoromethyl) pyrrolidine-2-carboxamide]
[1]
  Mouse liver microsomes T½: 1.51 h
  Mouse liver microsomes Residual (T = 60 min): 62.9%
[2]
  Blocking rate (%) @3 nM: 93.13%
  Blocking rate(%) @10 nM: 100.00%

## COc1c([C@H]2[C@H](C(=O)Nc3ccnc(C(N)=O)c3)O[C@@](C)(C(F)(F)F)[C@H]2C)ccc(F)c1F [VX-548, reference compound]
[1]
  half-life at 1 μM: 1.2 h
  Mouse liver microsomes Residual (T = 60 min): 56.3%
